Patent US5459156A, “Imidazolyl-substituted phenylacetic acid prolinamides” (Bayer Aktiengesellschaft, priority 1993, dated 1995)

Experiments:
Angiotensin II Receptor = biological target: T1, Angiotensin II Receptor (Bos taurus, UniProt P25104); assay: Inhibition of the specific binding of radioactive angiotensin II to the angiotensin II receptor in membrane fractions of the adrenal gland cortex (bovine); conditions: bovine adrenal gland cortex membranes; 3H-angiotensin II (3-5 nM); 60 min, room temperature; Table A
T1 construct: partially purified membrane fractions of bovine AGC using radioactive angiotensin II; from tissue; host or cells: bovine adrenal gland cortex, partially purified membrane fractions
T1 sequence (P25104 1-359): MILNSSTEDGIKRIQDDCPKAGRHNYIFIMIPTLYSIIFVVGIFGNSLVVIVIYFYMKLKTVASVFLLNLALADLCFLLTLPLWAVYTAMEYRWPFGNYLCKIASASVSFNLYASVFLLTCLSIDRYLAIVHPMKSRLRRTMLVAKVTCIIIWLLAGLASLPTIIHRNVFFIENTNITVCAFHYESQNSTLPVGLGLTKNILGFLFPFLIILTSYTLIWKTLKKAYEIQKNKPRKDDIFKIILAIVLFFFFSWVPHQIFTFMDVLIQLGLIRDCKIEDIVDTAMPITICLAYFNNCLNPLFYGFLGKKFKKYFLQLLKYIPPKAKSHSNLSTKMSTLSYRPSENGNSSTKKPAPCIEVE
From the text: Interaction of the Compounds According to the Invention with the Angiotensin II Receptor in Membrane Fractions of the Adrenal Gland Cortex (Bovine)
Bovine adrenal gland cortices (AGC), which have been freshly removed and carefully freed from gland medulla, are comminuted in sucrose solution (0.32M) with the aid of an Ultra-Turrax (Janke & Kunkel, Staufen i.B.) to give a coarse membrane homogenate and partially purified in two centrifugation steps to give membrane fractions. The receptor binding investigations are carried out on partially purified membrane fractions of bovine AGC using radioactive angiotensin II in an assay volume of 0.25 ml, which specifically contains the partially purified membranes (50-80 μg), ^3 H-angiotensin II (3-5 nM), test buffer solution (50 mM Tris, pH 7.2), 5 mM MgCl2 and the substances to be investigated. After an incubation time of 60 min at room temperature, the unbound radioactivity of the samples is separated by means of moistened glass fibre filters (Whatman GF/C) and the bound radioactivity is measured spectrophotometrically in a scintillation cocktail after washing the protein with ice-cold buffer solution (50 mM Tris/HCl, pH 7.4, 5% PEG 6000). […]

smooth muscle cells = assay: Inhibition of the proliferation of smooth muscle cells (3H-thymidine incorporation); format: cell-based, rats; conditions: rat aorta smooth muscle cells; inhibition of thymidine incorporation produced by 10% FCS; Table B
Procedure: Investigation of the Inhibition of the Proliferation of Smooth Muscle Cells by the Compounds According to the Invention
To determine the antiprofilerative action of the compounds, smooth muscle cells are used which are obtained from aortas of rats by the media explant technique [R. Ross, J. Cell. Biol. 50, 172, 1971]. The cells are inoculated in suitable culture dishes, as a rule 96-hole plates, and cultured in 5% CO2 at 37° C. for 2-3 days in medium 199 containing 7.5% FCS and 7.5% NCS, 2 mM L-glutamine and 15 mM HEPES, pH 7.4. The cells are then synchronized by withdrawal of serum for 2-3 days and then stimulated into growth with serum or other factors. Test compounds are simultaneously added. After 16-20 hours, 1 μCi ^3 H-thymidine is added and after a further 4 hours the incorporation of this substance into the TCA-precipitatable DNA of the cells is determined. To determine the IC50 values, the active compound concentration is determined which, on sequential dilution of the active compound, causes semi-maximal inhibition of the thymidine incorporation produced by 10% FCS.

| Compound | IC50 (Angiotensin II Receptor) | IC50 (smooth muscle cells) |
| --- | --- | --- |
| CCCCc1nc(Cl)c(C(=O)O)n1Cc1ccc(C(C(=O)N2CCC[C@H]2C(=O)OCc2ccccc2)C2CCCC2)cc1 (stereo partly shown) [Example 12] | 290 nM | – |
| CCCCc1nc(Cl)c(CO)n1Cc1ccc(C(C(=O)N2CCC[C@H]2C(=O)OC(C)(C)C)C2CCCC2)cc1 (single isomer, unassigned) [Example 14] | – | 450 nM |
| CCCCc1nc(Cl)c(C(=O)O)n1Cc1ccc(C(C(=O)N2CCC[C@H]2C(N)=O)C2CCCC2)cc1 (stereo partly drawn) [Example 7, 2-[4-(2-Butyl-4-chloro-5-carboxy-imidazol-1-yl-methyl)-phenyl]-2-cyclopentylacetic acid (L-prolinamido) amide] | 580 nM | – |
| CCCCc1nc(Cl)c(CO)n1Cc1ccc(C(C(=O)N2CCC[C@H]2C(=O)N[C@H](CO)c2ccccc2)C2CCCC2)cc1 (stereo partly drawn) [Example 9, 2-[4-(2-Butyl-4-chloro-5-hydroxymethyl-imidazol-1-yl-methyl)phenyl]-2-cyclopentylacetic acid (L-prolinephenylglycinolamido) amide] | – | 860 nM |
